“Also recorded” adds a separate entry of the source.
What was measured:
[1] = tested on: ER-dependent transcription; assay: ERE-luciferase T47D reporter, ER-dependent transcriptional activity; format: cell-based, human; conditions: T47D ERE-luciferase, 10 nM with 2 nM 17β-estradiol
Protocol: FIGS. 20A-20C show biologic activity of selected SERD candidates. […] ER-positive MCF-7 cells were treated in phenol-red free RPMI 1640 without FBS and containing vehicle control (CON) or 100 nM concentrations of either fulvestrant (FX) or antiestrogens 105, 109, 121, 140, 151, 160 or SERD128 in vitro. After 4 hours, cells were harvested and processed for PAGE and Western immunoblots using ERα antibody (1D5, Thermofisher Scientific). RPL13A was used as a loading control. […] Cells were dosed with either E2 alone or with SERDs combined with E2 in phenol redfree medium with 0.1% dextran-coated charcoal-treated FBS in luminometer plates. Data are presented as relative light units (RLU) relative to that of E2 alone in three replicate assays (4 wells per replicate) f SEM. Treatment with E2 alone induced a 12-fold induction of ER-dependent luciferase activity quantified as RLU relative to vehicle control-treated samples.
A stable ER-positive T47D ERE luciferase reporter cell line, in which the ERE and the reporter luciferase gene are consistently expressed in the cell line were used in this study (Signosis). […] Lysate was mixed 1:1 with luciferase substrate (Promega), and luminescence was measured using a MLX microtiter plate luminometer (Dynex) and quantified as relative light units (RLU) according to established procedures. Total protein was quantified using BioRad Protein Assay (BioRad).

MCF-7 cells = assay: Cell proliferation assay, MCF-7 (MCF-7/PAR); format: cell-based, human; conditions: 10 nM with 2 nM estradiol-17β, 48 hr
T47D cells = assay: Cell proliferation assay, T47D; format: cell-based, human; conditions: 10 nM with 2 nM estradiol-17β, 48 hr
ZR75 cells = assay: Cell proliferation assay, ZR75; format: cell-based, human; conditions: ZR75, 10 nM with 2 nM estradiol-17β, 48 hr
[2] = tested on: 4T1 triple negative breast cancer cells; assay: 4T1 cell proliferation in vitro, Incucyte live-cell confluence; format: cell-based, mouse; conditions: 10, 100, 1000 nM, presence or absence of estradiol-17β, 5 days
Protocol: FIGS. 23A-23C show estrogen effects on ERα negative tumor growth in vitro and in vivo. […] Female 6-wk-old BALB/c mice, either ovariectomized (ovx) or sham-operated (intact), were inoculated s.c. with 2×10^5 4T1 TNBC cells. Tumor growth was then assessed every 3 days, with tumor volume calculated as V=(l×w×w)/2. ****P≤0.0001. […] 4T1 cells were grown in the presence (+E2) or absence (−E2) of estradiol-17β and increasing concentrations of SERD128 at 10 nM (128-10), 100 nM (128-100) or 1000 nM (128-1000). Cell proliferation was assessed using the Incucyte S3 Live-Cell Analysis system with pictures obtained every 4-6 hours. […] Tumors were measured every 3 days, and tumor volume was calculated as V=(W(2)×L)/2). **P<0,01, ****P<0.0001 as compared to control group. n=11-12.
MCF-7 and other selected BC cells were seeded in 96-well plates at […] in complete medium. […] Cell number and viability were determined by either cell counts or by colorimetric assays using the CELLTITER 96 AQUEOUS (Promega) assay or the cell proliferation ELISA BrdU assay (Roche) as per manufacturer's instructions. […] In selected experiments using the INCUCYTE™ Live Cell System (Essen Bioscience) as per the manufacturer's instructions, the proliferation of 4T1 cells maintained in a tissue culture incubator was monitored by using the NucLight Rapid Red Reagent for cell labeling in 6-well plates. […]

[3] = tested on: MCF-7 human breast tumor xenografts; assay: MCF-7 human breast tumor xenografts in nude mice; format: in vivo; conditions: 15 and 75 mg/kg once a day by oral gavage for 28 days
[4] = Screen of SERD candidates in antitumor assays, comparison with fulvestrant; conditions: a number of antitumor assays
Source text: We designed, synthesized and screened more than 65 new SERD candidates, all of which have the general structure shown in 1′, namely 11β-aryloxy estradiols, with a basic amine positioned at the 4-position of the aryl ring (FIG. 16). The basic amine is connected to the aryl unit either directly or via a spacer that varies from 3-6 atoms. […] We note that this new class of steroid-like SERDs lack the prototypical side chain (as in fulvestrant) widely used to design other drugs with ERα antagonism, but these SERD candidates generate a full antagonist profile and induce significant ERα down-regulation, likely similar to significant ‘indirect’ receptor antagonism as reported in previous independent studies of 11β-substitutions in ERα [51, 52] and other structural changes as in an independent report.

With `C[C@]12C[C@H](Oc3ccc(N)c(C(F)(F)F)c3)[C@@H]3c4ccc(O)cc4CC[C@H]3[C@@H]1CC[C@@H]2O` [SERD128, (8S,9S,11S,13S,14S,17S)-11-(4-Amino-3-(trifluoromethyl)phenoxy)-13-methyl-7,8,9,11,12,13,14,15,16,17-decahydro-6H-cyclopenta[a]phenanthrene-3,17-diol] the “ER-dependent luciferase activity (RLU relative to E2 alone)” value [1] was “comparable to that of the pure antiestrogen fulvestrant”, the “cell proliferation (% of estradiol-treated controls)” value (MCF-7 cells) was “significantly blocked proliferation; also recorded: significantly inhibited; also recorded: antiproliferative action” and the “cell proliferation (% of estradiol-treated controls)” value (T47D cells) was “significantly blocked proliferation; also recorded: significantly inhibited”. The “cell proliferation (% of estradiol-treated controls)” value (ZR75 cells) was “significantly blocked proliferation; also recorded: significantly inhibited”, the “4T1 cell proliferation (phase object confluence)” value [2] was “No significant differences were observed in cell proliferation; also recorded: did not elicit any significant effect on cell growth in vitro” and the “tumor growth (tumor volume)” value [3] was “inhibits growth of human breast tumor xenografts in vivo; also recorded: significantly inhibited tumor growth in MCF-7 xenograft models in a dose-dependent manner; also recorded: inhibit the growth of human MCF-7 breast tumor xenografts in vivo in a dose-dependent manner; also recorded: potent biologic action in blocking the progression of breast tumors in vivo via an oral route of administration”. The “activity relative to fulvestrant” value [4] was “more potent than fulvestrant”.

From patent publication US20220133747A1, “ESTROGEN RECEPTOR INHIBITORS AND USES THEROF” (The Regents of the University of California, priority 2018, published 2022)
